Laboratory results taken from patent publication US20260325417A1, “TOPICAL SKIN COMPOSITION CONTAINING 1,3-PROPANEDIOL AS ACTIVE INGREDIENT FOR MAINTAINING MICROBIOME BALANCE IN SKIN” (ACTIVON CO.,LTD., priority 2022, published 2026).

Assays:
S. aureus = assay: Comparison of diol compounds, growth of harmful bacteria; assay type: cell-based, Staphylococcus aureus
Text: (§1) FIG. 4 illustrates the results of a comparative analysis of the effects of diol compounds, specifically 1,3-propanediol, 2-methyl-1,3-propanediol, 1,3-butanediol, 2,3-butanediol, 1,2-pentanediol, and 1,2-hexanediol on the growth of harmful bacteria (upper graph) and beneficial bacteria (lower graph). FIG. 4A: 1,3-propanediol, FIG. 4B: 2-methyl-1,3-propanediol; FIG. 4C: 1,3-butanediol; FIG. 4D: 2,3-butanediol; FIG. 4E: 1,2-pentanediol; FIG. 4F: 1,2-Hexanediol.
(§2) • 1) Staphylococcus epidermidis ATCC 12228 and Staphylococcus aureus ATCC 6538 strains were obtained from ThermoFisher Scientific and cultured in tryptic soy broth (culture conditions: 32° C. for 18 hours). After culturing, they were diluted with 0.85% NaCl to adjust the absorbance (600 nm) to 0.5-0.6. • 2) 1,3-propanediol was obtained from Sigma-Aldrich. • 3) 2-methyl-1,3-propanediol, 1,3-butanediol, 2,3-butanediol, 1,2-pentanediol, and 1,2-hexanediol were all obtained from Sigma-Aldrich. • 4) Fructan was obtained from Sigma-Aldrich. • 5) Yeast extract was obtained from Sigma-Aldrich.

S. epidermidis = assay: Comparison of diol compounds, growth of beneficial bacteria; assay type: cell-based, Staphylococcus epidermidis; set-up: key to Effect on the growth of beneficial bacteria (S. epidermidis): ++: Growth promotion; +: No effect; −: Growth inhibition; − −: 50% or more growth inhibition
Text: as §1, §2

CC(O)C(C)O (stereo not drawn) [2,3-butanediol]
Effect on the growth of harmful bacteria (S. aureus) (S. aureus; diol compound 0.1 wt %): +
Effect on the growth of harmful bacteria (S. aureus) (S. aureus; diol compound 1 wt %): +
Effect on the growth of harmful bacteria (S. aureus) (S. aureus; diol compound 5 wt %): ++
Effect on the growth of harmful bacteria (S. aureus) (S. aureus; diol compound 10 wt %): +++ (50% or more inhibition)
Effect on the growth of harmful bacteria (S. aureus) (S. aureus; diol compound 20 wt %): +++ (50% or more inhibition)
Effect on the growth of beneficial bacteria (S. epidermidis) (S. epidermidis; diol compound 0.1 wt %): ++
Effect on the growth of beneficial bacteria (S. epidermidis) (S. epidermidis; diol compound 1 wt %): −
Effect on the growth of beneficial bacteria (S. epidermidis) (S. epidermidis; diol compound 5 wt %): − − (50% or more growth inhibition)
Effect on the growth of beneficial bacteria (S. epidermidis) (S. epidermidis; diol compound 10 wt %): − − (50% or more growth inhibition)
Effect on the growth of beneficial bacteria (S. epidermidis) (S. epidermidis; diol compound 20 wt %): − − (50% or more growth inhibition)

CC(O)CCO (stereo not drawn) [1,3-butanediol]
Effect on the growth of harmful bacteria (S. aureus) (S. aureus; diol compound 0.1 wt %): +
Effect on the growth of harmful bacteria (S. aureus) (S. aureus; diol compound 1 wt %): +
Effect on the growth of harmful bacteria (S. aureus) (S. aureus; diol compound 5 wt %): ++
Effect on the growth of harmful bacteria (S. aureus) (S. aureus; diol compound 10 wt %): ++
Effect on the growth of harmful bacteria (S. aureus) (S. aureus; diol compound 20 wt %): +++ (50% or more inhibition)
Effect on the growth of beneficial bacteria (S. epidermidis) (S. epidermidis; diol compound 0.1 wt %): ++
Effect on the growth of beneficial bacteria (S. epidermidis) (S. epidermidis; diol compound 1 wt %): −
Effect on the growth of beneficial bacteria (S. epidermidis) (S. epidermidis; diol compound 5 wt %): −
Effect on the growth of beneficial bacteria (S. epidermidis) (S. epidermidis; diol compound 10 wt %): − − (50% or more growth inhibition)
Effect on the growth of beneficial bacteria (S. epidermidis) (S. epidermidis; diol compound 20 wt %): − − (50% or more growth inhibition)

CCCC(O)CO (stereo not drawn) [1,2-pentanediol]
Effect on the growth of harmful bacteria (S. aureus) (S. aureus; diol compound 0.1 wt %): +
Effect on the growth of harmful bacteria (S. aureus) (S. aureus; diol compound 1 wt %): +
Effect on the growth of harmful bacteria (S. aureus) (S. aureus; diol compound 5 wt %): +++ (50% or more inhibition)
Effect on the growth of harmful bacteria (S. aureus) (S. aureus; diol compound 10 wt %): +++ (50% or more inhibition)
Effect on the growth of harmful bacteria (S. aureus) (S. aureus; diol compound 20 wt %): +++ (50% or more inhibition)
Effect on the growth of beneficial bacteria (S. epidermidis) (S. epidermidis; diol compound 0.1 wt %): ++
Effect on the growth of beneficial bacteria (S. epidermidis) (S. epidermidis; diol compound 1 wt %): −
Effect on the growth of beneficial bacteria (S. epidermidis) (S. epidermidis; diol compound 5 wt %): − − (50% or more growth inhibition)
Effect on the growth of beneficial bacteria (S. epidermidis) (S. epidermidis; diol compound 10 wt %): − − (50% or more growth inhibition)
Effect on the growth of beneficial bacteria (S. epidermidis) (S. epidermidis; diol compound 20 wt %): − − (50% or more growth inhibition)
